Assay results taken from ChEMBL document CHEMBL1201862, “PubChem BioAssay data set” (2004).
Active and inactive are the calls of the source.

Experiments:
Prothrombin = Prothrombin (Homo sapiens, UniProt P00734); assay: Thrombin 1536 HTS Dose Response Confirmation. [Related pubchem assays: 1046 (Thrombin 1536 HTS; hits were confirmed in this assay)]; format: functional
[1] = molecular target: T1, Calpain-2 catalytic subunit (Sus scrofa, UniProt P43367); assay: m-calpain protease blockers, concentration series – biochemical, fluorogenic peptide substrate, dose response (AID 1420); format: functional
T1 sequence (P43367 whole entry): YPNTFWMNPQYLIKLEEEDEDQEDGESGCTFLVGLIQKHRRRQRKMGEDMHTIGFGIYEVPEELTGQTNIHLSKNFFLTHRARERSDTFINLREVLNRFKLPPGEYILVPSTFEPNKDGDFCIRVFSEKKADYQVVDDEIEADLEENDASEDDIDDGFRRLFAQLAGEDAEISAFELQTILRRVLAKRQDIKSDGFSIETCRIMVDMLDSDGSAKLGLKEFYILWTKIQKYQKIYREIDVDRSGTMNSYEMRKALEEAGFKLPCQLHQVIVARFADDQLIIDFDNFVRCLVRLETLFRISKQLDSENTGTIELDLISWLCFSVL

Leucine aminopeptidase = molecular target: T2, Leucine aminopeptidase (Plasmodium falciparum 3D7, UniProt Q8IL11); assay: P. falciparum M17LAP inhibitors, primary screen, biochemical, fluorogenic H-Leu-NHMec substrate, 1536-well (AID 1619); format: functional
T2 sequence (Q8IL11 whole entry): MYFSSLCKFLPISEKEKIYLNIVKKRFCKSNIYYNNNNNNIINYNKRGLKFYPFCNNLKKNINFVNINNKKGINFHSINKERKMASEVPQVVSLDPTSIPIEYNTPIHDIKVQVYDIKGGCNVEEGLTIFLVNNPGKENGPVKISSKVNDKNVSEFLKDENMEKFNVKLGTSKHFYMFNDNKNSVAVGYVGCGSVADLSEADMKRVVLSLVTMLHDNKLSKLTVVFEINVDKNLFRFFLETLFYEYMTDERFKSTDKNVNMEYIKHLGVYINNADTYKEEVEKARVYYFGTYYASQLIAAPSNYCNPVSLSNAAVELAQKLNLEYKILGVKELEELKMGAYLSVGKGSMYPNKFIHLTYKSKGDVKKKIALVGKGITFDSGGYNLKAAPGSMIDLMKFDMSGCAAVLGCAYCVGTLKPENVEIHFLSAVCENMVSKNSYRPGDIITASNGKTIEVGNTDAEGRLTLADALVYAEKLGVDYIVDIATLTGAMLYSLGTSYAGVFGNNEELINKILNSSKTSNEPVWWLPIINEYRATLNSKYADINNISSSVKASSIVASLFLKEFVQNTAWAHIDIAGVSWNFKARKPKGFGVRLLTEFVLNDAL

[2] = molecular target: T3, Short transient receptor potential channel 4 (Mus musculus, UniProt Q9QUQ5); assay: block of DAMGO-driven TRPC4 calcium entry – cell-based, HEK293 TRPC4/mu-opioid, Fluo-4 calcium, dose response (AID 434942); format: functional;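 further: potency of inhibitors blocking the TRPC4 calcium response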
T3 sequence (Q9QUQ5 whole entry): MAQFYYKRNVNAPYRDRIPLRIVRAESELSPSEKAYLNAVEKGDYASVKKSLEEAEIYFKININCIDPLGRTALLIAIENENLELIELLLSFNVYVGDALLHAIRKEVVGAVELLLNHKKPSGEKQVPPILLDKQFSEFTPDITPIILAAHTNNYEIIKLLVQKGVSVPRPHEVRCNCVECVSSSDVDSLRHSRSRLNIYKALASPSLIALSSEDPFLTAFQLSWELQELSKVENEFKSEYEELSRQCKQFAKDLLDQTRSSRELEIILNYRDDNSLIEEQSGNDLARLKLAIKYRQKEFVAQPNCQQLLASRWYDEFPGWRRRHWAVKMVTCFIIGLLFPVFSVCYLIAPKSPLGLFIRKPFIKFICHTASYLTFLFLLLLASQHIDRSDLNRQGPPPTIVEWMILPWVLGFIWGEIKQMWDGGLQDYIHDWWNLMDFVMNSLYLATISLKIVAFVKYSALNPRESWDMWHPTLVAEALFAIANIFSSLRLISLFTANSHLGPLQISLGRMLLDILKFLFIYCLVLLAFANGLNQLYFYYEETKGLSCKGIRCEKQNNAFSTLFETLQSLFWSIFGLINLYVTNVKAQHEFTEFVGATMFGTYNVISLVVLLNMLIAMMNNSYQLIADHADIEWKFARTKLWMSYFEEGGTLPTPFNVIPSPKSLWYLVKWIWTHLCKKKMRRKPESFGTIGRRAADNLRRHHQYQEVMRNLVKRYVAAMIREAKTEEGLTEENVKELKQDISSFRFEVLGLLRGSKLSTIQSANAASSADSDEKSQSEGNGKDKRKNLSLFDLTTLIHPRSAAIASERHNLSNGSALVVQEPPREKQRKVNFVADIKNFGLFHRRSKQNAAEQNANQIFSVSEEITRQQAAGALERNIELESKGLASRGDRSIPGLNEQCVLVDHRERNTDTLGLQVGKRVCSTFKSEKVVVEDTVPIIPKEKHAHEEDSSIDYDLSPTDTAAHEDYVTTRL

cells [3] = format: functional, cell-based
Large T antigen = Large T antigen (Simian virus 40, UniProt P03070); format: functional, Betapolyomavirus macacae;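 further: Confirmatory-stage PubChem screen for compounds that inhibit SV40 T antigen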
cells [4] = format: functional, cell-based; remark: listed apart in the source
[5] = molecular target: Alkaline phosphatase, placental type (Homo sapiens, UniProt P05187); assay: human placental alkaline phosphatase inhibition – biochemical, luminescence, confirmation (AID 1512); format: functional
HEK293 = assay: EBV LMP1 TES2 canonical NF-kB signalling blockers – cell-based, HEK293, luciferase, cherry-pick, dose response (AID 588343); format: functional, Homo sapiens; details: Homo sapiens, HEK293
[6] = alpha-synuclein stem-loop luciferase translation blockers – H4 neuroglioma cells, luminescence, confirmation (AID 1988); format: functional, cell-based
[7] = Luminescence Cell-Based Dose Response HTS to Identify Inhibitors of 5'UTR Stem-Loop Driven Prion Protein mRNA Translation in H4 Neuroglioblastoma Cells. [Related pubchem assays: 1827 (Project Summary), 1813 (Primary HTS)]; format: functional
[8] = luciferase reporter signal suppression in cells – H4 neuroglioma cells, luminescence, dose response (AID 1990); format: functional, cell-based
Paired box protein Pax-8 = Paired box protein Pax-8 (Homo sapiens, UniProt Q06710); assay: PAX8 transcriptional activity inhibition in RMG-I – RMG-I cells, luciferase, cherry-pick, dose response (AID 687027); format: functional, cell-based;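 further: luciferase reporter driven by Pax8 target thyroperoxidase promoter measured by SteadyGlo luminescence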
[9] = OVCAR8 cell viability loss – plate reader, dry powder samples, PAX8 project, dose response (AID 743197); format: functional, cell-based; details: OVCAR-8
Cytochrome P450 1A2 = molecular target: T4, Cytochrome P450 1A2 (Homo sapiens, UniProt P05177);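 further: PubChem cytochrome P450 panel assay, CYP1A2 panel member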
T4 sequence (P05177 whole entry): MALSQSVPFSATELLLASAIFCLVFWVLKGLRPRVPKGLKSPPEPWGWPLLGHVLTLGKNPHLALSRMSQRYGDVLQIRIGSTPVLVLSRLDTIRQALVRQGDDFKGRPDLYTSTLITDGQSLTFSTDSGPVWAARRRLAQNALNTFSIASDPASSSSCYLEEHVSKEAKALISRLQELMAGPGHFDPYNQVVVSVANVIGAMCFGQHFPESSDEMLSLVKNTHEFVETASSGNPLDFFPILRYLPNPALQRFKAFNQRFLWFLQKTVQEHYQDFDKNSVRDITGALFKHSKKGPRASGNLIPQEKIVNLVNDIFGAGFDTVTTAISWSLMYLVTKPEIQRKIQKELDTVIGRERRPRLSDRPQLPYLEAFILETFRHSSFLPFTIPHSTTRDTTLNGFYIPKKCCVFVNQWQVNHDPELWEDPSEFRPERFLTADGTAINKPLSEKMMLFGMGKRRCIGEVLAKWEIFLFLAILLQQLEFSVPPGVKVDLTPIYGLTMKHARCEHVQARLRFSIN

Cytochrome P450 2C9 = Cytochrome P450 2C9 (Homo sapiens, UniProt P11712)
Sequence of Cytochrome P450 2C9 (P11712 whole entry): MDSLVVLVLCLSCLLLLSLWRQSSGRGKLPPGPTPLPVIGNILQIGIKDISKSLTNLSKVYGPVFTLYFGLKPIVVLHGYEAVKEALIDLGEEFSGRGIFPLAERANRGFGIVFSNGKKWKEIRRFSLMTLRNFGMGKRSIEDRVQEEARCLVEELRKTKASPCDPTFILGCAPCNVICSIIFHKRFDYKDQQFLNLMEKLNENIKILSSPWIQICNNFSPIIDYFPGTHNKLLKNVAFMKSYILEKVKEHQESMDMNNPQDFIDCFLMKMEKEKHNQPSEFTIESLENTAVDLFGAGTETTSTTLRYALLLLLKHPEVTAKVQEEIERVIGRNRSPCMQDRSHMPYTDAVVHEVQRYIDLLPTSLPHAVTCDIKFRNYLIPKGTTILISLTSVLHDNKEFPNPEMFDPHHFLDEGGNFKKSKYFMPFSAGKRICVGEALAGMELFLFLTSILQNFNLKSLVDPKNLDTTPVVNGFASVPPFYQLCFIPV

Sequence of Paired box protein Pax-8 (Q06710 whole entry): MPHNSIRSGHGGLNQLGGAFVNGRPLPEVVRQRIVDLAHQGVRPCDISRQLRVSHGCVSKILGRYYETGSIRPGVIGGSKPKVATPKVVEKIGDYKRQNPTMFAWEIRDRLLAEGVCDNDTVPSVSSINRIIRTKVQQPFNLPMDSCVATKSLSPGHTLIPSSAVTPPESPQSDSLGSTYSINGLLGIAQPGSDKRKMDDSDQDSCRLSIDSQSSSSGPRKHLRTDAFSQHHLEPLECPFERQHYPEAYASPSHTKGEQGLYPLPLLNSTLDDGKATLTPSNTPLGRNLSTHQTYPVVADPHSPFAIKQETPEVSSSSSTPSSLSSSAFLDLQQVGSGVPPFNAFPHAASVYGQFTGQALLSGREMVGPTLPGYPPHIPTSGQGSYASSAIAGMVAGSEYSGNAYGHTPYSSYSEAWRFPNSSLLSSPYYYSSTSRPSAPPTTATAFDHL
Sequence of Alkaline phosphatase, placental type (P05187 whole entry): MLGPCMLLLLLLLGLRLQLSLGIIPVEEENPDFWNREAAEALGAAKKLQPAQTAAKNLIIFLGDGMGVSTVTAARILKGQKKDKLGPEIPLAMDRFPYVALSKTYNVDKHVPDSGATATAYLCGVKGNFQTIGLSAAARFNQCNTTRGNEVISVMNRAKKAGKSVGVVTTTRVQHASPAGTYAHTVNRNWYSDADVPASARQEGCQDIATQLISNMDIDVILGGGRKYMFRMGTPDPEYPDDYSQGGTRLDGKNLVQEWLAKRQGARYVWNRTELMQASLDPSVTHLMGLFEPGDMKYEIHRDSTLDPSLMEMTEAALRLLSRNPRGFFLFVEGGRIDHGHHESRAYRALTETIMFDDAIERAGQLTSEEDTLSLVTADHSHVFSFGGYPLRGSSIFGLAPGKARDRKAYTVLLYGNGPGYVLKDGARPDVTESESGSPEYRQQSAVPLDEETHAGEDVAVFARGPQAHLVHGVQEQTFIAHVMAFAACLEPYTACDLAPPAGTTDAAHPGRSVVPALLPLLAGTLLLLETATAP
Sequence of Large T antigen (P03070 whole entry): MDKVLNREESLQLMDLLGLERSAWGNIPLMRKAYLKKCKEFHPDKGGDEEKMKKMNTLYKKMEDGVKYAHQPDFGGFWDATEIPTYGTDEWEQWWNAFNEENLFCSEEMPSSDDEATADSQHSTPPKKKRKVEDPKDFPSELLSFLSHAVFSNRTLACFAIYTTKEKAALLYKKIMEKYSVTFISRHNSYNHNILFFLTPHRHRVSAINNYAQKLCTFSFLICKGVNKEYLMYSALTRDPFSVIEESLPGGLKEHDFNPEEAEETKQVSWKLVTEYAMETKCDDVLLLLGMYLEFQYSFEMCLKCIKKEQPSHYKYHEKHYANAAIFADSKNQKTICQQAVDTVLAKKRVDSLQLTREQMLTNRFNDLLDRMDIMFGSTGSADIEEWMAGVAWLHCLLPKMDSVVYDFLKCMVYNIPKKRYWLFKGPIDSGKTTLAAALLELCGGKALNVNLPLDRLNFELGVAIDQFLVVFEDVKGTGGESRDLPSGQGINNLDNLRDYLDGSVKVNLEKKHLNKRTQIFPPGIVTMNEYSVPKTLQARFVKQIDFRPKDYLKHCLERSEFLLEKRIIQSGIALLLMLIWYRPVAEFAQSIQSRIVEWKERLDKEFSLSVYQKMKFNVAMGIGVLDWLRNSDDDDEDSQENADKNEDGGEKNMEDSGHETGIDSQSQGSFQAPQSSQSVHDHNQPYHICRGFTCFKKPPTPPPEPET

Q: With COC(=O)c1ccc(NC2CC(=O)N(c3ccccc3C)C2=O)cc1 (stereo not given) as the compound, how does the IC50 (Prothrombin) read?
A: > 50 µM (not active)

Q: With CC(=O)C(=NNc1ccc(-n2ccc(C(F)(F)F)n2)cc1)C(C)=O as the compound, how does the IC50 [1] read?
A: 2.57 µM (active)

Q: For Cc1ccc(C(=O)Nc2nc(=O)n(C(=O)C3CC3)s2)cc1, which IC50 (Leucine aminopeptidase) is on record?
A: 19.3 µM (active)

Q: For Cc1ccc(Cn2ccc(NC(=O)C3C4CCC(C4)C3C(=O)O)n2)cc1 (stereo not given), which IC50 (Leucine aminopeptidase) is on record?
A: 10.2 µM (active)

Q: With CC(C)(C)SCCNS(=O)(=O)c1ccc2ccccc2c1 as the compound, how does the IC50 [1] read?
A: > 50 µM (not active)

Q: With c1ccc(COC(CN2CCCCCC2)CN2CCCCCC2)cc1 as the compound, how does the EC50 [2] read?
A: 6.68 µM (active)

Q: For CC(=O)n1nc(-c2cccc(C)c2)nc1SCC(=O)Nc1ccccc1, which IC50 (Prothrombin) is on record?
A: 0.731 µM (active)

Q: Which IC50 [1] does the source give for CS(=O)(=O)c1ccc(C(=O)N2CCc3ccccc3C2)cc1 here?
A: 0.514 µM (not active)

Q: Which IC50 [1] does the source give for Cc1cc(C)cc(Oc2nc(-c3ccccc3)cc(C)c2S(C)(=O)=O)c1 here?
A: 6.25 µM (not active)

Q: For Cc1c(CCOC(=O)c2ccc([N+](=O)[O-])cc2)sc[n+]1CC(=O)c1ccccc1, which EC50 [2] is on record?
A: 5.96 µM (active)

Q: With COc1ccccc1N1CCc2c(C)nc3c(OC)cccc3c21 as the compound, how does the EC50 [2] read?
A: 4.73 µM (active)

Q: With O=C(c1ccc(-c2ccc([N+](=O)[O-])cc2)o1)N1CCCCC1 as the compound, how does the IC50 (Prothrombin) read?
A: > 50 µM (not active)

Q: Which IC50 (Prothrombin) does the source give for CCc1ccc(N2CC(C(=O)Nc3ccccc3F)CC2=O)cc1 (stereo not given) here?
A: > 50 µM (not active)

Q: With CCOc1cc(N2CCOCC2)c(OCC)cc1NC(C)C(=O)N1CCC(C)CC1 (stereo not given) as the compound, how does the EC50 (cells [3]) read?
A: > 350 µM (not active)

Q: What about the IC50 (Large T antigen) of the same compound?
A: 17.1 µM (active)

Q: And the EC50 (cells [4])?
A: > 350 µM (not active)

Q: For CCOC(=O)CCP(=O)(O)C(O)c1ccc(OC)cc1 (stereo not given), which IC50 (Leucine aminopeptidase) is on record?
A: 8.59 µM (active)

Q: With O=C(c1nc2ccccc2s1)N1CCN(c2ccccn2)CC1 as the compound, how does the IC50 (Prothrombin) read?
A: > 50 µM (not active)

Q: Which IC50 [5] does the source give for CCCc1cc(=O)[nH]c(-n2nc3c(c2O)CCCC3)n1 here?
A: > 100 µM (inactive)

Q: For OCC1(Cc2ccccc2)CCN(Cc2ccc(C(F)(F)F)cc2)CC1, which EC50 [2] is on record?
A: 2.11 µM (active)

Q: For COc1cc(OC)cc(C(=O)n2cnnc2N)c1, which IC50 (Prothrombin) is on record?
A: 0.1 µM (active)

Q: With Cc1ccc(/C=C/c2nc3ccccc3s2)s1 as the compound, how does the AC50 (HEK293) read?
A: 4.16 µM (active)

Q: And the EC50 [6]?
A: 3.78 µM (active)

Q: And the EC50 [7]?
A: 10.7 µM (active)

Q: With O=C(O)c1cccc(NC(=S)NC(=O)c2ccc(-c3ccccc3)cc2)c1 as the compound, how does the IC50 [1] read?
A: > 50 µM (not active)

Q: With O=C(NC1(C(F)(F)F)Oc2cc(Cl)c(Cl)cc2O1)N1CCC2(CC1)OCCO2 as the compound, how does the IC50 [5] read?
A: > 100 µM (inactive)

Q: With CC(NCCC(Cc1ccccc1)c1ccco1)c1ccccc1 (stereo not given) as the compound, how does the EC50 [2] read?
A: 1.68 µM (active)

Q: For O=C(Nc1ncccc1O)c1ccc(S(=O)(=O)NCc2ccco2)cc1, which AC50 (HEK293) is on record?
A: 20.7 µM (active)

Q: Which results are given for CCc1cc(C(=O)N/N=C/c2ccc(O)cc2O)c2ccccc2n1?
A: EC50 [8]: 16.7 µM (active); EC50 (cells [3]): > 350 µM (not active); EC50 [6]: 7.63 µM (active); EC50 [7]: 13.3 µM (active); EC50 (cells [4]): 9.29 µM (active)

Q: Which AC50 (Paired box protein Pax-8) does the source give for Cc1ccc(S(=O)(=O)N(C)C[C@@H]2OCCCC[C@H](C)Oc3ccc(NS(=O)(=O)c4ccc(F)cc4)cc3C(=O)N([C@H](C)CO)C[C@H]2C)cc1 here?
A: 5.5 µM (active)

Q: What about the AC50 [9] of the same compound?
A: 55.9 µM (active)

Q: For C[C@@H]1CN([C@H](C)CO)C(=O)c2c(c3ccccc3n2C)-c2ccccc2CO[C@H]1CN(C)C(=O)Nc1cccc(C(F)(F)F)c1, which AC50 (Paired box protein Pax-8) is on record?
A: 5.56 µM (active)

Q: And the AC50 [9]?
A: > 70 µM (inactive)

Q: For C[C@@H]1CN([C@@H](C)CO)C(=O)c2c(c3ccccc3n2C)-c2ccccc2CO[C@H]1CN(C)S(=O)(=O)c1ccccc1F, which AC50 (Paired box protein Pax-8) is on record?
A: 5.88 µM (active)

Q: And the AC50 [9]?
A: > 70 µM (inactive)

Q: For COc1cccc(S(=O)(=O)N(C)C[C@@H]2Oc3cc(C4=CCCCC4)ccc3S(=O)(=O)N([C@@H](C)CO)C[C@H]2C)c1, which AC50 (Paired box protein Pax-8) is on record?
A: 14.5 µM (active)

Q: What about the AC50 [9] of the same compound?
A: 49.6 µM (active)

Q: For COc1cc(C(=O)Oc2ccccc2/C=N/NC(=O)c2ccc(C)cc2)cc(OC)c1OC, which EC50 (cells [3]) is on record?
A: > 350 µM (not active)

Q: What about the AC50 (Cytochrome P450 1A2) of the same compound?
A: 2.24 µM (inconclusive)

Q: And the AC50 (Cytochrome P450 2C9)?
A: 0.316 µM (inconclusive)

Q: And the EC50 (cells [4])?
A: > 350 µM (not active)
